Measured values reported in PMC10787893, “Expression and characterization of the new antimicrobial peptide AP138L-arg26 anti Staphylococcus aureus” (Applied Microbiology and Biotechnology, 2024).
≈ marks a conversion by molar mass, not a printed value. Counter-ions that a name gives are not always drawn. Like-named read-outs stand apart in the source and are kept apart here.

Columns and labels:
S. aureus CVCC 546 [1] = details: for FIC: FIC = MICc/MICa; for MICa: MIC of peptide/antibiotic alone, three parallel experiments
Method: The synergistic effects of AP138L-arg26 with different antibiotics were evaluated using a checkerboard assay. The synergistic effect was calculated using the FICI as follows: FICI = FIC of AP138L-arg26 + FIC of antibiotic; FIC = MICc/MICa, where MICc is the MIC of the peptide and antibiotic in combination, and MICa is the MIC of the peptide/antibiotic alone (Blier et al. [2010]). Three parallel experiments were performed for each group. The efficacy of combination therapy was defined as FICI ≤ 0.5, 0.5 < FICI ≤ 1, 1 < FICI ≤ 4, and FICI > 4 indicating synergy, addition, no difference, and antagonism, respectively.

S. aureus CVCC 546 [2] = test: Growth curve of S. aureus; type: cell-based, Staphylococcus aureus; details: AP138L-arg26 8 µg/mL (2 × MIC), ceftiofur sodium 0.25 µg/mL (1/8 MIC), alone or combined; 1 × 10^5 CFU/mL
Method: Samples were taken during the logarithmic growth of S. aureus and diluted to 1 × 10^5 CFU/mL (Delpech et al. [2019]). Different concentrations of AP138L-arg26, ceftiofur sodium, or a combination of them with an equal volume of bacteria were added to a 96-well microplate. The growth curves were recorded using a fully automatic growth curve recording instrument.

[3] = tested on: Staphylococcus aureus ATCC 25923; test: MIC and MBC, broth microdilution; type: cell-based; details: Staphylococcus aureus, ATCC25923
Method: (§1) To determine the MIC values of AP138L-arg26, we used the broth microdilution technique as previously described (Andrews. [2001]; Wiegand et al. [2008]). In brief, AP138L-arg26 peptide were diluted from 1280 to 2.5 µg/mL and added to a 96-cells plate with 10 µL per well. The bacteria in the logarithmic stage were diluted to 10^5 CFU/mL with 90 µL per well. […] The MBC method was also based on the CLSI 2021 guidelines.

[4] = tested on: Staphylococcus aureus ATCC 43300; test: MIC and MBC, broth microdilution; type: cell-based; details: Staphylococcus aureus, ATCC43300
Method: as §1

[5] = tested on: Staphylococcus aureus CAAS-FRI-2023-01; test: MIC and MBC, broth microdilution; type: cell-based; details: Staphylococcus aureus
Method: as §1

[6] = tested on: Staphylococcus aureus CAAS-FRI-2023-02; test: MIC and MBC, broth microdilution; type: cell-based; details: Staphylococcus aureus
Method: as §1

[7] = tested on: Staphylococcus aureus CVCC 546; test: MIC and MBC, broth microdilution; type: cell-based; details: Staphylococcus aureus, CVCC546
Method: as §1

[8] = tested on: Staphylococcus aureus E48; test: MIC and MBC, broth microdilution; type: cell-based; details: Staphylococcus aureus, E48
Method: as §1

[9] = tested on: Staphylococcus epidermidis ATCC 12228; test: MIC and MBC, broth microdilution; type: cell-based; details: Staphylococcus epidermidis, ATCC12228
Method: as §1

[10] = tested on: Staphylococcus epidermidis ATCC 35984; test: MIC and MBC, broth microdilution; type: cell-based; details: Staphylococcus epidermidis, ATCC35984
Method: as §1

[11] = tested on: Streptococcus agalactiae ATCC 13813; test: MIC and MBC, broth microdilution; type: cell-based; details: Streptococcus agalactiae, ATCC13813
Method: as §1

[12] = tested on: Streptococcus agalactiae CAU-FRI-2022-01; test: MIC and MBC, broth microdilution; type: cell-based; details: Streptococcus agalactiae, CAUFRI202201
Method: as §1

[13] = tested on: Streptococcus agalactiae CAU-FRI-2022-02; test: MIC and MBC, broth microdilution; type: cell-based; details: Streptococcus agalactiae, CAUFRI202202
Method: as §1

[14] = tested on: Streptococcus dysgalactiae CVCC 3938; test: MIC and MBC, broth microdilution; type: cell-based; details: Streptococcus dysgalactiae, CVCC3938
Method: as §1

S. aureus ATCC 43300 = test: Post-antibiotic effect (PAE) assay; type: cell-based, Staphylococcus aureus; details: PAE = T − C
Source text: The method of PAE of AP138L-arg26 against MRSA ATCC 43300 or S. aureus CVCC 546 was described previously (Wang et al. [2018]). The formula is PAE = T − C (T is the time required for the number of colonies in the sample treatment group to increase by tenfold, and C is the time required for the untreated group).

[15] = 99.99% of bacteria killed, plated on MHA, read-out: MBC
[16] = broth microdilution, 10^5 CFU/mL, 37 °C, 18 h, read-out: MIC

CC1(C)S[C@@H]2[C@H](NC(=O)[C@H](N)c3ccccc3)C(=O)N2[C@H]1C(=O)O [Ampicillin] showed an FIC (S. aureus CVCC 546 [1]; combination AP138L-arg26-ampicillin) of 0.0625 and an MICc (S. aureus CVCC 546 [1]; in combination AP138L-arg26-ampicillin) of 0.0078 µg/mL.

In the case of CO/N=C(\C(=O)N[C@@H]1C(=O)N2C(C(=O)[O-])=C(CSC(=O)c3ccco3)CS[C@H]12)c1csc(N)n1.[Na+] [Ceftiofur sodium, ceftiofur sodium], the “effect on the growth of S. aureus CVCC 546” value (S. aureus CVCC 546 [2]) is reported as “little effect on the growth”, the FIC (S. aureus CVCC 546 [1]; combination AP138L-arg26-ceftiofur sodium) is reported as 0.25 and the MICc (S. aureus CVCC 546 [1]; in combination AP138L-arg26-ceftiofur sodium) is reported as 0.25 µg/mL.

Compound [H]/N=C(/N)N[C@H]1[C@H](O)[C@@H](O)[C@H](O[C@@H]2O[C@@H](C)[C@](O)(C=O)[C@H]2O[C@@H]2O[C@@H](CO)[C@H](O)[C@@H](O)[C@@H]2NC)[C@@H](N/C(N)=N\[H])[C@@H]1O [Streptomycin sulfate] has an FIC (S. aureus CVCC 546 [1]; combination AP138L-arg26-Streptomycin sulfate) of 0.5, an MICa (S. aureus CVCC 546 [1]) of 1 µg/mL and an MICc (S. aureus CVCC 546 [1]; in combination AP138L-arg26-Streptomycin sulfate) of 0.5 µg/mL.

Compound CN[C@H](CC(C)C)C(=O)N[C@H]1C(=O)N[C@@H](CC(N)=O)C(=O)N[C@H]2C(=O)N[C@H]3C(=O)N[C@H](C(=O)N[C@H](C(=O)O)c4cc(O)cc(O)c4-c4cc3ccc4O)[C@H](O)c3ccc(c(Cl)c3)Oc3cc2cc(c3O[C@@H]2O[C@H](CO)[C@@H](O)[C@H](O)[C@H]2O[C@H]2C[C@](C)(N)[C@H](O)[C@H](C)O2)Oc2ccc(cc2Cl)[C@H]1O [vancomycin, reference compound] has an MBC [3, 15] of 2 µg/mL (≈ 1.38 µM), an MIC [3, 16] of 1 µg/mL (≈ 0.69 µM) and an MBC [4, 15] of 1 µg/mL (≈ 0.69 µM). It also gave an MIC [4, 16] of 1 µg/mL (≈ 0.69 µM), an MBC [5, 15] of 2 µg/mL (≈ 1.38 µM) and an MIC [5, 16] of 1 µg/mL (≈ 0.69 µM). The MBC [6, 15] was 8 µg/mL (≈ 5.52 µM), the MIC [6, 16] was 2 µg/mL (≈ 1.38 µM) and the MBC [7, 15] was 1 µg/mL (≈ 0.69 µM). The MIC [7, 16] was 1 µg/mL (≈ 0.69 µM), the MBC [8, 15] was 8 µg/mL (≈ 5.52 µM) and the MIC [8, 16] was 1 µg/mL (≈ 0.69 µM). It also gave an MBC [9, 15] of 4 µg/mL (≈ 2.76 µM), an MIC [9, 16] of 2 µg/mL (≈ 1.38 µM) and an MBC [10, 15] of 4 µg/mL (≈ 2.76 µM). It also gave an MIC [10, 16] of 2 µg/mL (≈ 1.38 µM), an MBC [11, 15] of 4 µg/mL (≈ 2.76 µM) and an MIC [11, 16] of 2 µg/mL (≈ 1.38 µM). It also gave an MBC [12, 15] of 8 µg/mL (≈ 5.52 µM), an MIC [12, 16] of 2 µg/mL (≈ 1.38 µM) and an MBC [13, 15] of 4 µg/mL (≈ 2.76 µM). The MIC [13, 16] was 2 µg/mL (≈ 1.38 µM), the MBC [14, 15] was 2 µg/mL (≈ 1.38 µM) and the MIC [14, 16] was 2 µg/mL (≈ 1.38 µM). For the same compound, the PAE (S. aureus ATCC 43300; 1 × MIC) was 0.27 h, the PAE (S. aureus ATCC 43300; 2 × MIC) was 0.45 h and the PAE (S. aureus ATCC 43300; 4 × MIC) was 1.18 h. It also gave an MICa (S. aureus CVCC 546 [1]) of 1 µg/mL.
